Patent publication US20140323504A1, “Pyrazolo[4,3-c]Pyridine Derivatives As Kinase Inhibitors” (Cellzome Limited, priority 2011, published 2014)

Target: T1, BLK (Homo sapiens, UniProt P51451)
T1 construct: endogenous in cells; host or cells: 1:1 mix of Jurkat and Ramos cell lysates
Assay: Radiometric protein kinase assay (33PanQinase, ProQinase), BLK
Format: biochemical
Details: ATP at apparent Km; read-out: BLK enzyme assay IC50
Method: A radiometric protein kinase assay (^33PanQinase® Activity Assay; ProQinase GmbH, Freiburg, Germany) was used for measuring the kinase activity of the protein kinases BLK, BTK, ITK and JAK3. All kinase assays were performed in 96-well FlashPlates™ from PerkinElmer (Boston, Mass., USA) in a 50 μl reaction volume. The reaction cocktail was pipetted in four steps in the following order: • 20 μl of assay buffer (standard buffer) • 5 μl of ATP solution (in H2O) • 5 μl of test compound (in 10% DMSO) • 10 μl of substrate/10 μl of enzyme solution (premixed)
The reaction cocktails were incubated at 30° C. for 60 minutes. The reaction was stopped with 50 μl of 2% (v/v) H3PO4, plates were aspirated and washed two times with 200 μl 0.9% (w/v) NaCl. Incorporation of ^33Pi was determined with a microplate scintillation counter (Microbeta, Wallac). All assays were performed with a BeckmanCoulter/SAGIAN™ Core System.

T1 sequence (P51451 whole entry): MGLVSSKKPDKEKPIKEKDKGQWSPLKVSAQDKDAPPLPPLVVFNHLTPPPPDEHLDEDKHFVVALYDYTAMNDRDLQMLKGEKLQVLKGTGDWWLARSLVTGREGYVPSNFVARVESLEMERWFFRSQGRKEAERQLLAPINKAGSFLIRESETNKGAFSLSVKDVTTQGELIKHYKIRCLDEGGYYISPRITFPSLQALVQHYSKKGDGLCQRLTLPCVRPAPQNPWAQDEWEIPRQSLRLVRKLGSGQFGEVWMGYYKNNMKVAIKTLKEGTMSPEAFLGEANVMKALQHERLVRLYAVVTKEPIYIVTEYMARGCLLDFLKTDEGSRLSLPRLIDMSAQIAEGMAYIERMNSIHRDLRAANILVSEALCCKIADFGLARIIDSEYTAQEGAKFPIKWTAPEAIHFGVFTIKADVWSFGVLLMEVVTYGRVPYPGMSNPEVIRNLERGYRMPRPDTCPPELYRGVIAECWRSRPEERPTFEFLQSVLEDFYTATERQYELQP

Structure (SMILES): C=CC(=O)Nc1cc(Cn2ncc3cnc(Nc4cnn(C)c4)nc32)ccc1F [Example 2, […]]
- IC50: 2000 nM
